This experiment concerns the target T1, human FAAH (Homo sapiens, UniProt O00519).
T1 construct: host or cells: COS-7 cells, transient transfection (FuGENE 6); 13,000 g membrane fraction solubilised in 1% Triton X-100
T1 sequence (O00519 1-579): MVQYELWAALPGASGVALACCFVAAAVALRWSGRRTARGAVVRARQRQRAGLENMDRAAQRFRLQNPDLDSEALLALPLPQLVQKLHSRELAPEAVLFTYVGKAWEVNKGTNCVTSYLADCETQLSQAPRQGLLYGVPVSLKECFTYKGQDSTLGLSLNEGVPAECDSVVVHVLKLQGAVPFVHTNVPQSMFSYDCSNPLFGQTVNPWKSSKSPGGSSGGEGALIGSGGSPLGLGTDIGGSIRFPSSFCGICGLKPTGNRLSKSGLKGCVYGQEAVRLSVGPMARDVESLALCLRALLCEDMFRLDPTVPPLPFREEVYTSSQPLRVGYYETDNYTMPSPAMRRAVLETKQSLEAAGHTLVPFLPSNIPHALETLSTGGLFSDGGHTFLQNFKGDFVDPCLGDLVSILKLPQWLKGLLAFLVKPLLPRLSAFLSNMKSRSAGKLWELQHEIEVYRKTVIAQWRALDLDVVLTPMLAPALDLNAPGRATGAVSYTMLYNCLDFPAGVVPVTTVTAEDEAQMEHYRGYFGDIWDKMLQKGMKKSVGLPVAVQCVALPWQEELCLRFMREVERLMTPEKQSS
The experiment in a line: Human FAAH biochemical inhibition assay (AMC arachidonoyl amide fluorescence). The settings on record: class given in each Example, read-out: Activity (Ki, inhibition of human FAAH). Summed up:
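Human FAAH from solubilized membranes of transiently transfected COS-7 cells, 0.1 mg/mL in 50 mM Hepes pH 7.5, 1 mM EDTA, 0.2% Triton X-100, preincubated 30 min at room temperature with 3-fold serially diluted inhibitor. Hydrolysis of AMC arachidonoyl amide read by fluorescence (ex 355/em 460 nm). Data fitted to single-site competitive inhibition with Km fixed at 9 μM.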

Structures are written as SMILES.

One may read the Ki as a measure of affinity in units of concentration, obtained from inhibition or displacement.

In the case of `O=C1c2ccc(B(O)O)cc2C(=O)N1CCc1ccccc1` [Compound 309], the Ki is ≤ 10 nM.
Regarding `CCCc1nc(-c2ccc(B(O)O)cc2)no1` [Compound 24], the Ki was ≤ 10 nM.
For `OB(O)c1ccc(-c2cnn(Cc3ccccc3)c2)cc1F` [Compound 226], the Ki was ≤ 10 nM.
`CCCCCN1C(=O)c2ccc(B(O)O)cc2C1=O` [Compound 307]: the Ki is ≤ 10 nM.
With `OB(O)c1ccc2nc(OCc3ccccc3)ccc2c1` [Compound 193], the Ki is ≤ 10 nM.
As for `OB(O)c1ccc(C2CCN(Cc3ccccc3)CC2)cc1` [Compound 279], the inhibition constant (Ki) was 100 to 1000 nM.
With `CC(C)c1ccc(CN2CCC(c3ccc(B(O)O)cc3)CC2)cc1` [Compound 280], the Ki was 10 to 100 nM.
Turning to `OB(O)c1ccc2c(cnn2Cc2ccccc2)c1` [Compound 316], the inhibition constant (Ki) is ≤ 10 nM.
As to `CC(C)CCn1cc(-c2ccc(B(O)O)cc2)cn1` [Compound 222], the Ki is ≤ 10 nM.
Take `OB(O)c1ccc2cn(Cc3ccccc3)nc2c1` [Compound 217]: the Ki was ≤ 10 nM.
Take `OB(O)c1ccc(-c2nnc(-c3ccccc3)o2)c(F)c1` [Compound 67]: the Ki is 10 to 100 nM.
The value for `OB(O)c1ccccc1-c1nc2ncccc2o1` [Compound 259] was > 1000 nM; that for `OB(O)c1ccc(-c2nnc(-c3ccccc3)o2)nc1` [Compound 12] was 10 to 100 nM; that for `OB(O)c1ccc(OCc2ccccc2)cc1/C=N/OCc1ccccc1` [Compound 115] was 10 to 100 nM.
Consider `OB(O)c1ccc2nc(OC3CCCCC3)ccc2c1` [Compound 192], for which the Ki lay in the range of 10 to 100 nM.
The value for `OB(O)c1ccc2nc(COc3ccccc3)ccc2c1` [Compound 221] was 10 to 100 nM; that for `CCCCCC1(CCCCC)CC(c2ccc(B(O)O)cc2)=NO1` [Compound 164] was 100 to 1000 nM; that for `CCCc1nnc(-c2ccsc2B(O)O)o1` [Compound 72] was > 1000 nM.
Regarding `CCCc1nnc(-c2ccc(B(O)O)c(-c3nnc(CCC)o3)c2)o1` [Compound 76], the inhibition constant Ki is ≤ 10 nM.
On to `OB(O)c1ccc(OCCc2ccccc2)cc1COCc1ccccc1` [Compound 97], for which the Ki was > 1000 nM.
As to `OB(O)c1ccc(-c2nnc(CCc3ccccc3)o2)cc1` [Compound 57], the Ki was ≤ 10 nM.
For `OB(O)c1ccc2cc(CCc3ccccc3)oc2c1` [Compound 293] the value was ≤ 10 nM; for `OB(O)c1csc(-c2nnc(-c3ccccc3)o2)c1` [Compound 61], 10 to 100 nM; for `OB1ON=Cc2cc(OCc3ccccc3)ccc21` [Compound 105], 10 to 100 nM.
For the compound `OB(O)c1ccc(-c2cnn(-c3ccccc3)c2)cc1` [Compound 232], the Ki was ≤ 10 nM.
As to `OB(O)c1ccc2nc(Oc3ccccc3)ccc2c1` [Compound 187], the inhibitory constant (Ki) was ≤ 10 nM.
Take `CCCc1cc(-c2ccccc2B(O)O)no1` [Compound 168]: the Ki was > 1000 nM.
For `OB(O)c1ccc([C@H]2OC[C@@H](c3ccccc3)O2)cc1` [Compound 182], the Ki was ≤ 10 nM.

The values above are taken from patent US8957049B2, “Inhibitors of fatty acid amide hydrolase” (Infinity Pharmaceuticals, Inc., priority 2008, dated 2015).
